# Target: Human recombinant Histone Deacetylase 8 (HDAC8) (Homo sapiens (Human), UniProt Q9BY41)
# Test: HDAC8 Enzymatic Assay (HDAC-Glo I/II luminescence)
# Type: biochemical
# Settings: HDAC8; read-out: IC50
# Method in brief: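 Human recombinant HDAC8 (1.5 nM final) preincubated with compound for 30 min, then reacted with 50 μM Boc-GAK(Ac)-aminoluciferin plus trypsin-containing developer for 15 min at room temperature, pH 8.0, 0.5% DMSO. Luminescence read-out; IC50 from percent control activity versus log concentration.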
# Human recombinant Histone Deacetylase 8 (HDAC8), sequence (Q9BY41 whole entry): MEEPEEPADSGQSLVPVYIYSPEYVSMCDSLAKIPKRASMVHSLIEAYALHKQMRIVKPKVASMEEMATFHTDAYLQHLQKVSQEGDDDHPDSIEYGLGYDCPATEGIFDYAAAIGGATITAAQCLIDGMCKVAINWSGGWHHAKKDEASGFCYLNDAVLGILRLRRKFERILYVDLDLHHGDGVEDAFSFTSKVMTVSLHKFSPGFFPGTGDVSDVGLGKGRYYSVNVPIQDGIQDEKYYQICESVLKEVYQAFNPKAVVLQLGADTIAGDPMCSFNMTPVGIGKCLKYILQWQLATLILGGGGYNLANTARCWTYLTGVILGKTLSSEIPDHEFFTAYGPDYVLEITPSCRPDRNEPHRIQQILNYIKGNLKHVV
row,Structure (SMILES),IC50 [µM]
1,"O=C(NO)C(Cc1ccccc1)n1nc(C#CC2CC2)c2ccnc(Cl)c21 (stereo not drawn) [Compound I-0126, 2-[7-Chloro-3-(cyclopropylethynyl)-1H-pyrazolo[3,4-c]pyridin-1-yl]-N-hydroxy-3-phenylpropanamide]",0.101
2,"O=C(NO)C(Cc1ccccc1)n1nc2c(Cl)nccc2c1C#CC1CC1 (stereo not drawn) [Compound I-0127, 2-[7-Chloro-3-(cyclopropylethynyl)-2H-pyrazolo[3,4-c]pyridin-2-yl]-N-hydroxy-3-phenylpropanamide]",0.0057
3,"Cn1nccc1-c1nccc2c(C#CC3CC3)n(C(Cc3ccccc3)C(=O)NO)nc12 (stereo not drawn) [Compound I-0128, 2-[3-(Cyclopropylethynyl)-7-(1-methyl-1H-pyrazol-5-yl)-2H-pyrazolo[3,4-c]pyridin-2-yl]-N-hydroxy-3-phenylpropanamide]",0.0043
4,"O=C(NO)C(Cc1ccccc1)c1cnc2c(Cl)cccn12 (stereo not drawn) [Compound I-0134, 2-(8-Chloroimidazo[1,2-a]pyridin-3-yl)-N-hydroxy-3-phenylpropanamide]",0.258
5,"CC1CCN(c2cccc3nn(C(Cc4ccccc4)C(=O)NO)cc23)CC1 (stereo not drawn) [Compound I-0145, N-hydroxy-2-(4-(4-methylpiperidin-1-yl)-2H-indazol-2-yl)-phenylpropanamide]",0.717

# Same assay, conditions: class symbols, Table 14; read-out: HDAC8 IC50
row,Structure (SMILES),IC50 [µM]
1,"CN(C)C(=O)c1ccc(-c2cccc3cn(C(Cc4ccccc4)C(=O)NO)nc23)cc1 (stereo not drawn) [Compound I-0110, 4-(2-(1-(hydroxyamino)-1-oxo-3-phenylpropan-2-yl)-2H-indazol-7-yl)-N,N-dimethylbenzamide]",≤ 0.05
2,"Cc1nn(C)c(C)c1-c1cccc2cn(C(Cc3ccccc3)C(=O)NO)nc12 (stereo not drawn) [Compound I-0111, N-hydroxy-3-phenyl-2-(7-(1,3,5-trimethyl-1H-pyrazol-4-yl)-2H-indazol-2-yl)propanamide]",> 0.5
3,"O=C(NO)C(Cc1ccccc1)c1cnc2cc(-c3cncnc3)ccn12 (stereo not drawn) [Compound I-0112, N-hydroxy-3-phenyl-2-(7-(pyrimidin-5-yl)imidazo[1,2-a]pyridin-3-yl)propanamide]",0.05 to 0.2
4,"O=C(NO)C(Cc1ccccc1)c1cnc2cc(-c3ccncc3)ccn12 (stereo not drawn) [Compound I-0113, N-hydroxy-3-phenyl-2-(7-(pyridin-4-yl)imidazo[1,2-a]pyridin-3-yl)propanamide]",> 0.5
5,"O=C(NO)C(Cc1ccccc1)c1cnc2cc(-c3cccnc3)ccn12 (stereo not drawn) [Compound I-0114, N-hydroxy-3-phenyl-2-(7-(pyridin-3-yl)imidazo[1,2-a]pyridin-3-yl)propanamide]",0.2 to 0.5
6,"Cn1nccc1-c1ccn2c(C(Cc3ccccc3)C(=O)NO)cnc2c1 (stereo not drawn) [Compound I-0115, N-hydroxy-2-(7-(1-methyl-1H-pyrazol-5-yl)imidazo[1,2-a]pyridin-3-yl)-3-phenylpropanamide]",0.2 to 0.5
7,"O=C(NO)C(Cc1ccccc1)n1ncc2cc(-c3ccccc3)cnc21 (stereo not drawn) [Compound I-0116, N-hydroxy-3-phenyl-2-(5-phenyl-1H-pyrazolo[3,4-b]pyridin-1-yl)propanamide]",> 0.5
8,"N#Cc1ccc(-c2cnc3c(cnn3C(Cc3ccccc3)C(=O)NO)c2)cc1 (stereo not drawn) [Compound I-0117, 2-(5-(4-cyanophenyl)-1H-pyrazolo[3,4-b]pyridin-1-yl)-N-hydroxy-3-phenylpropanamide]",> 0.5
9,"NC(=O)c1ccc(-c2cnc3c(cnn3C(Cc3ccccc3)C(=O)NO)c2)cc1 (stereo not drawn) [Compound I-0118, 4-(1-(1-(hydroxyamino)-1-oxo-3-phenylpropan-2-yl)-1H-pyrazolo[3,4-b]pyridin-5-yl)benzamide]",0.2 to 0.5
10,"Cn1nccc1-c1cnc2c(cnn2C(Cc2ccccc2)C(=O)NO)c1 (stereo not drawn) [Compound I-0119, N-hydroxy-2-(5-(1-methyl-1H-pyrazol-5-yl)-1H-pyrazolo[3,4-b]pyridin-1-yl)-3-phenylpropanamide]",0.2 to 0.5
11,"Cn1cc(-c2cnc3c(cnn3C(Cc3ccccc3)C(=O)NO)c2)cn1 (stereo not drawn) [Compound I-0120, N-hydroxy-2-(5-(1-methyl-1H-pyrazol-4-yl)-1H-pyrazolo[3,4-b]pyridin-1-yl)-3-phenylpropanamide]",0.2 to 0.5
12,"O=C(NO)C(Cc1ccccc1)n1ncc2cc(-c3cncnc3)cnc21 (stereo not drawn) [Compound I-0121, N-hydroxy-3-phenyl-2-(5-(pyrimidin-5-yl)-1H-pyrazolo[3,4-b]pyridin-1-yl)propanamide]",0.2 to 0.5
13,"O=C(NO)C(Cc1ccccc1)n1ncc2cc(Br)cnc21 (stereo not drawn) [Compound I-0122, 2-(5-bromo-1H-pyrazolo[3,4-b]pyridin-1-yl)-N-hydroxy-3-phenylpropanamide]",0.2 to 0.5
14,"O=C(NO)C(Cc1ccccc1)n1cc2cc(Br)cnc2n1 (stereo not drawn) [Compound I-0123, 2-(5-bromo-2H-pyrazolo[3,4-b]pyridin-2-yl)-N-hydroxy-3-phenylpropanamide]",0.2 to 0.5
15,"O=C(NO)C(Cc1ccccc1)n1nc(I)c2ccnc(Cl)c21 (stereo not drawn) [Compound I-0124, 2-(7-chloro-3-iodo-1H-pyrazolo[3,4-c]pyridin-1-yl)-N-hydroxy-3-phenylpropanamide]",0.05 to 0.2
16,"O=C(NO)C(Cc1ccccc1)n1nc2c(Cl)nccc2c1I (stereo not drawn) [Compound I-0125, 2-(7-chloro-3-iodo-2H-pyrazolo[3,4-c]pyridin-2-yl)-N-hydroxy-3-phenylpropanamide]",0.05 to 0.2
17,"O=C(NO)C(Cc1ccccc1)n1nc(C#CC2CC2)c2ccnc(Cl)c21 (stereo not drawn) [Compound I-0126, 2-[7-Chloro-3-(cyclopropylethynyl)-1H-pyrazolo[3,4-c]pyridin-1-yl]-N-hydroxy-3-phenylpropanamide]",0.05 to 0.2
18,"O=C(NO)C(Cc1ccccc1)n1nc2c(Cl)nccc2c1C#CC1CC1 (stereo not drawn) [Compound I-0127, 2-[7-Chloro-3-(cyclopropylethynyl)-2H-pyrazolo[3,4-c]pyridin-2-yl]-N-hydroxy-3-phenylpropanamide]",≤ 0.05
19,"Cn1nccc1-c1nccc2c(C#CC3CC3)n(C(Cc3ccccc3)C(=O)NO)nc12 (stereo not drawn) [Compound I-0128, 2-[3-(Cyclopropylethynyl)-7-(1-methyl-1H-pyrazol-5-yl)-2H-pyrazolo[3,4-c]pyridin-2-yl]-N-hydroxy-3-phenylpropanamide]",≤ 0.05

row,Structure (SMILES),IC50 [µM]
1,"O=C(NO)C(Cc1ccccc1)n1cc2ccnc(Cl)c2n1 (stereo not drawn) [Compound I-0129, 2-(7-chloro-2H-pyrazolo[3,4-c]pyridin-2-yl)-N-hydroxy-3-phenylpropanamide]",0.2 to 0.5
2,"N#Cc1cccc(-c2cnc3c(cnn3C(Cc3ccccc3)C(=O)NO)c2)c1 (stereo not drawn) [Compound I-0130, 2-(5-(3-cyanophenyl)-1H-pyrazolo[3,4-b]pyridin-1-yl)-N-hydroxy-3-phenylpropanamide]",> 0.5
3,"NC(=O)c1cccc(-c2cnc3c(cnn3C(Cc3ccccc3)C(=O)NO)c2)c1 (stereo not drawn) [Compound I-0131, 3-(1-(1-(hydroxyamino)-1-oxo-3-phenylpropan-2-yl)-1H-pyrazolo[3,4-b]pyridin-5-yl)benzamide]",0.2 to 0.5
4,"O=C(NO)C(Cc1ccccc1)n1ncc2cc(-c3cccnc3)cnc21 (stereo not drawn) [Compound I-0132, N-hydroxy-3-phenyl-2-(5-(pyridin-3-yl)-1H-pyrazolo[3,4-b]pyridin-1-yl)propanamide]",0.2 to 0.5
5,"O=C(NO)C(Cc1ccccc1)n1ncc2cc(-c3ccncc3)cnc21 (stereo not drawn) [Compound I-0133, N-hydroxy-3-phenyl-2-(5-(pyridin-4-yl)-1H-pyrazolo[3,4-b]pyridin-1-yl)propanamide]",> 0.5
6,"O=C(NO)C(Cc1ccccc1)c1cnc2c(Cl)cccn12 (stereo not drawn) [Compound I-0134, 2-(8-Chloroimidazo[1,2-a]pyridin-3-yl)-N-hydroxy-3-phenylpropanamide]",0.2 to 0.5
7,"O=C(NO)C(Cc1ccccc1)n1nc2c(Cl)cccc2c1I (stereo not drawn) [Compound I-0135, 2-(7-chloro-3-iodo-2H-indazol-2-yl)-N-hydroxy-3-phenylpropanamide]",0.2 to 0.5
8,"O=C(NO)C(Cc1ccccc1)n1nc2c(Cl)cccc2c1C#CC1CC1 (stereo not drawn) [Compound I-0136, 2-(7-chloro-3-(cyclopropylethynyl)-2H-indazol-2-yl)-N-hydroxy-3-phenylpropanamide]",≤ 0.05
9,"Cn1nccc1-c1cccc2c(C#CC3CC3)n(C(Cc3ccccc3)C(=O)NO)nc12 (stereo not drawn) [Compound I-0137, 2-(3-(cyclopropylethynyl)-7-(1-methyl-1H-pyrazol-5-yl)-2H-indazol-2-yl)-N-hydroxy-3-phenylpropanamide]",≤ 0.05
10,"NC(=O)c1ccc(-c2cccc3c(C#CC4CC4)n(C(Cc4ccccc4)C(=O)NO)nc23)cc1 (stereo not drawn) [Compound I-0138, 4-(3-(cyclopropylethynyl)-2-(1-(hydroxyamino)-1-oxo-3-phenylpropan-2-yl)-2H-indazol-7-yl)benzamide]",≤ 0.05
11,"CN(C)C(=O)c1ccc(-c2cccc3c(C#CC4CC4)n(C(Cc4ccccc4)C(=O)NO)nc23)cc1 (stereo not drawn) [Compound I-0139, 4-(3-(cyclopropylethynyl)-2-(1-(hydroxyamino)-1-oxo-3-phenylpropan-2-yl)-2H-indazol-7-yl)-N,N-dimethylbenzamide]",≤ 0.05
12,"NC(=O)c1ccc(-c2nccc3c(C#CC4CC4)n(C(Cc4ccccc4)C(=O)NO)nc23)cc1 (stereo not drawn) [Compound I-0140, 4-(3-(cyclopropylethynyl)-2-(1-(hydroxyamino)-1-oxo-3-phenylpropan-2-yl)-2H-pyrazolo[3,4-c]pyridin-7-yl)benzamide]",≤ 0.05
13,"CNC(=O)c1ccc(-c2nccc3c(C#CC4CC4)n(C(Cc4ccccc4)C(=O)NO)nc23)cc1 (stereo not drawn) [Compound I-0141, 4-(3-(cyclopropylethynyl)-2-(1-(hydroxyamino)-1-oxo-3-phenylpropan-2-yl)-2H-pyrazolo[3,4-c]pyridin-7-yl)-N-methylbenzamide]",≤ 0.05
14,"CN(C)C(=O)c1ccc(-c2nccc3c(C#CC4CC4)n(C(Cc4ccccc4)C(=O)NO)nc23)cc1 (stereo not drawn) [Compound I-0142, 4-(3-(cyclopropylethynyl)-2-(1-(hydroxyamino)-1-oxo-3-phenylpropan-2-yl)-2H-pyrazolo[3,4-c]pyridin-7-yl)-N,N-dimethylbenzamide]",≤ 0.05
15,"O=C(NO)C(Cc1ccccc1)n1ncc2ccc(-c3cnn(CCN4CCOCC4)c3)cc21 (stereo not drawn) [Compound I-0143, N-hydroxy-2-(6-(1-(2-morpholinoethyl)-1H-pyrazol-4-yl)-1H-indazol-1-yl)-3-phenylpropanamide]",> 0.5
16,"CC(=O)N1CCN(c2cncc(-c3ccc4cnn(C(Cc5ccccc5)C(=O)NO)c4c3)c2)CC1 (stereo not drawn) [Compound I-0144, 2-(6-(5-(4-acetylpiperazin-1-yl)pyridin-3-yl)-1H-indazol-1-yl)-N-hydroxy-3-phenylpropanamide]",0.05 to 0.2
17,"CC(C)Oc1ccc(-c2cccc3nn(C(Cc4ccccc4)C(=O)NO)cc23)cn1 (stereo not drawn) [Compound I-0146, N-hydroxy-2-(4-(6-isopropoxypyridin-3-yl)-2H-indazol-2-yl)-3-phenylpropanamide]",0.2 to 0.5
18,"COCc1ccc(-c2cccc3nn(C(Cc4ccccc4)C(=O)NO)cc23)cc1 (stereo not drawn) [Compound I-0147, N-hydroxy-2-(4-(4-(methoxymeth-yl)phenyl)-2H-indazol-2-yl)-3-phenylpropanamide]",0.2 to 0.5

# Reference: patent US10723705B2, “Heterocyclic compounds and uses thereof” (Incyte Corporation, priority 2015, dated 2020)
